Measurements from US20010005714A1, “AMPHIPATHIC MOLECULES AS CHOLESTEROL AND OTHER LIPID UPTAKE INHIBITORS” (priority 1996, published 2001).

Key:
[1] = molecular target: proteinase K-treated normal BBMV; assay: [14C]Cholesterol uptake from egg PC vesicles by proteinase K-treated normal BBMV; format: biochemical, human
Description: (§1) Biopsy samples from human duodenum, 20 to 30 mg of wet tissue each, were suspended in 200 μl buffer (12 mM Tris HCl pH 7.2, 300 mM mannitol, 5 mM EGTA, 1 mM phenylmethylsulfonyl fluoride), frozen in liquid nitrogen and stored at −80° C. prior to use. BBMV were prepared by Mg^+2 precipitation (Hauser et al, Biochim. Biophys. Acta 602 567-577 (1980)) as described in detail by Booth et al (Lancet 1 1066-1069 (1985)). Proteinase K treatment of the BBMV was carried out according to Thurnhofer and Hauser (Biochim. Biophys. Acta 1024 249-262 (1990)). […] Small unilamellar phesrholipid vesicles were prepared by tip sonication (Schulthess, Biochemistry 33 4500-4508 (1994)). […]
(§2) Kinetic measurements were also carried out in the presence of inhibitors; synthetic peptides or apolipoproteins were added to the […] of donor and acceptor vesicles. Cholesterol uptake by native and proteinase K treated BBMV was determined in the presence of increasing concentrations of Ac-18A-NH2, the difference between cholesterol uptake by native and proteinase K treated BBMV is referred as protein-mediated cholesterol uptake in FIG. 6. The IC50 values were determined according to Methods Enzymol. […]

[2] = [14C]Cholesterol transfer from egg PC vesicles to egg PC/egg PA vesicles; format: biochemical
Description: (II) Similarly, egg PC small unilamellar vesicles containing 1 mol % [^14C] cholesterol as the donor and small unilamellar vesicles of egg PC/egg PA (85:15, mole ratio) as the acceptor were incubated at room temperature. After timed intervals aliquots of the incubation mixture were filtered through DEAE Sepharose C1-CB columns, which retained the negatively charged vesicles. Pure egg PC vesicles were eluted and their radioactivity determined.
(§3) Kinetic measurements were also carried out in the presence of inhibitors; synthetic peptides or apolipoproteins were added to the […] of donor and acceptor vesicles. Cholesterol uptake by native and proteinase K treated BBMV was determined in the presence of increasing concentrations of Ac-18A-NH2, the difference between cholesterol uptake by native and proteinase K treated BBMV is referred as protein-mediated cholesterol uptake in FIG. 6. The IC50 values were determined according to Methods Enzymol. 37 3-22 (1975).

[3] = system: brush border membrane vesicles (BBMV); assay: IC50 of cholesteryl oleate uptake at the brush border membrane (Example 6); format: biochemical, rabbit; conditions: donor 0.1 mg total lipid/ml, acceptor 2 mg protein/ml; 20 min at 25° C.
Description: An appropriate amount of inhibitor dissolved in 84.5 μl buffer (0.05 M Tris pH 7.4, 0.15 M NaCl) is mixed in an Eppendorf tube at time zero with 5 μl of a dispersion of donor and 10.5 μl of a dispersion of acceptor (i.e. brush border membrane vesicles (BBMV)) in the same buffer. The final concentration of the donor vesicles was 0.1 mg total lipid/ml, that of the acceptor was 2 mg protein/ml. The resulting mixture was incubated for 20 min at 25° C., and the reaction was stopped by adding 60 μl of the incubation medium to 120 μl ice-cold bufferin an airfuge tube. The diluted dispersion was immediately centrifuiaed in the airfuge at […] for 2 min. at 4° C. to separate donor vesicles from BBMV. Two 60 μl aliquots of the donor (=supernatant) were counted in a Beckman LS-7500 liquid scintillating counter to determine the radioactivity remaining in tbe donor.
Small unilamellar egg phosphatidycholine (PC) vesicles containing 1 mol % of cholesterol oleate and a trace amount of ^3H-cholesterol oleyl ether were made by dissolving the appropriate amounts of the lipids in CHCl3/CH3OH, (2:1, by vol.), taking the solution to dryness on a rotary evaporator and drying the residue in vacuo. The dried lipid film was dispersed in the appropriate volume of buffer by hand-shaking. The lipid dispersion was subjected to tip sonication as described in Brunner et al, J. Biol. Chem. 253 7538-7546 (1978). The resulting donor dispersion in buffer was centrifuged in the airfuge at 100000 g for 2 min at […]. Only the top 80% of the donor dispersion after centrifugation was used in the lipid uptake experiment.
BBMV were prepared from frozen rabbit small intestine according to Hauser et al (Biochim. Biophys. Acta 602 567-577 (1980)). Prior to use in the uptake experiment determining IC50 values the BBMV were washed to remove any free protein liberated from the BBM. To this end the BBMV dispersion was diluted with buffer 1:1 in an airfuge tube, and the diluted dispersion was centrifuged in the airfuga at 100000 g for 2 min at […]. The supernatant was is carefully decanted, the pellet was resuspended in buffer to the original volume of the BBMV dispersion, and the dispersion was homogenized. […]

BBMVs = assay: Inhibition of cholesteryl oleate uptake by BBMVs by peptides of varying lengths (Example 8); format: biochemical; conditions: 120 μg peptide/ml
Description: going from one peptide to the other (top→bottom) 3 amino acids were removed from the N-terminus. The inhibitory effect of the four peptides listed above were compared at 120 μg peptide/ml. The lipid uptake by BBMVs was measured in the presence of 120 μg peptide/ml each as described below.
Donor and acceptor particles dispersed in Tris/NaCl buffer were centrifuged in a Beckman airfuge at 115000 g is for 2 min at 4° C. The dispersion of the acceptor yielded a pellet which was resuspended in Tris/NaCl buffer. Varying amounts of inhibitor dissolved in the same buffer were added to the acceptor dispersion and at time zero the dispersiorn of acceptor with or without inhibitor was mixed with the top 80% of the supernatant obtained by centrifugation of the donor dispersion. The final concentration of the donor was 0.05 mg total lipid/ml and that of the acceptor was 5 mg protein/ml. The resulting dispersion was incubated at 23° C. and after timed intervals the sterol uptake was stopped by dilution of the incubation medium with 2 volumes of Tris/NaCl buffer. BBMV were separated from the donor by centrifugation in the Beckman airfuge at 115000 g for 2 min at 4° C. The radioactivities in the supernatant containing the donor and in the pellet containing the BBMV (acceptor) were determined in a Beckman LS 7500 scintillation counter.

[4] = system: abetalipoproteinemic BBMV; assay: [14C]Cholesterol uptake from egg PC vesicles by abetalipoproteinemic BBMV; format: biochemical, human; conditions: donor egg PC vesicles 0.01 mg lipid/ml, acceptor abetalipoproteinemic BBMV 0.25 mg lipid/ml; read-out: Inhibition IC50: concentration required to reduce protein-mediated cholesterol uptake by 50%
Description: as §1, §2

normal human BBMV = assay: [14C]Cholesterol uptake from egg PC vesicles by normal human duodenal BBMV; format: biochemical
Description: Biopsy samples from human duodenum, 20 to 30 mg of wet tissue each, were suspended in 200 μl buffer (12 mM Tris HCl pH 7.2, 300 mM mannitol, 5 mM EGTA, 1 mM phenylmethylsulfonyl fluoride), frozen in liquid nitrogen and stored at −80° C. prior to use. BBMV were prepared by Mg^+2 precipitation (Hauser et al, Biochim. Biophys. Acta 602 567-577 (1980)) as described in detail by Booth et al (Lancet 1 1066-1069 (1985)). Proteinase K treatment of the BBMV was carried out according to Thurnhofer and Hauser (Biochim. Biophys. Acta 1024 249-262 (1990)). […] Small unilamellar phesrholipid vesicles were prepared by tip sonication (Schulthess, Biochemistry 33 4500-4508 (1994)).
(I) Egg PC small unilamellar vesicles containing […] (^14C] cholesterol and BBMV both dispersed in 10 mM Tris-HCl pH 7.2, 0.15 M NaCl, 5 mM EDTA were incubated at room temperature. After timed intervals phospholipid vesicles and BBMV were separated by centrifugation at 115000 g for 2 min in a Beckman airfuge. The radioactivities present in pellet and supernatant were determined by counting aliquots in a Beckman LS 7500 liquid scintillatior counter. Fusion of egg PC small unilamellar vesicles and BBMV as a possible mechanism of cholesterol uptake was ruled out as discussed in detail in previous studies (Thurnhofer and Hauser, Biochemistry 29 2142-2148 (1990); Compassi, Biochemistry 34 16473-16482 (1995) and Schulthess, J. Lipid. Res. 37 2405-2419 (1996)).
The experimental data were computer-fitted using the following equation valid for single-exponential exchange reactions: X=X∞+[XO−X∞]e^-k1^[(a+b)/a]t, where XO, X and X∞represent the fractions of the labelled lipid in the donor at times 0, t and at equilibrium, respectively. K1 is the pseudo-first-order rate constant of the reaction and a and b are the lipid pools of acceptor and donor, respectively (McKay, Nature 142 997-998 (1938) and Mutsch et al, Biochemistry 25 2134-2140 (1986).
as §3

Ac-Asp-Trp-Leu-Lys-Alα-Phe-Tyr-Asp-Lys-Val-Alα -Glu-Lys-Leu-Lys-Glu-Alα-Phe-NH2 [Ac-18A-NH2, amphipathic α-helix of class A peptide, N-acetylated and C-amidated 18A]
Inhibition IC50 ([1]; donor egg PC vesicles 0.01 mg lipid/ml, acceptor proteinase K-treated normal BBMV 0.25 mg lipid/ml): no inhibition | inhibitory effect on cholesterol uptake (in words) ([1]; proteinase K-treated BBMV): no inhibitory effect | inhibitory effect on cholesterol transfer between phospholipid vesicles (in words) [2]: no inhibitory effect | Inhibition IC50 ([2]; donor egg PC vesicles 0.01 mg lipid/ml, acceptor egg PC/egg PA vesicles 0.25 mg lipid/ml): no inhibition | IC50 [3]: 16 ± 1 µM | IC50 (μg/mL) of cholesteryl oleate uptake at the brush border membrane [3]: 35 ± 2 µg/mL | inhibitory effect on cholesteryl oleate uptake (in words, footnote) (BBMVs): Useful inhibitory effect is seen with Peptides Nos. 1 and 2. | Inhibition of Cholesteryloleate Uptake In. % (BBMVs; donor 0.05 mg total lipid/ml, acceptor 5 mg protein/ml, 23° C.): 100% | IC50 [4]: 23 ± 3 µM | effect on passive cholesterol transfer (in words) (normal human BBMV): no inhibitory effect | half time of residual cholesterol uptake by native BBMV not inhibited by the peptide (normal human BBMV; 60 μM Ac-18A-NH2): 6.7 ± 1.4 h | IC50 (normal human BBMV; donor egg PC vesicles 0.01 mg lipid/ml, acceptor normal human BBMV 0.25 mg lipid/ml, 20 min, read-out: Inhibition IC50: concentration required to reduce protein-mediated cholesterol uptake by 50%): 23 ± 1 µM | inhibition of protein-mediated cholesterol uptake (in words) (normal human BBMV; human duodenal BBMV): effectively and completely inhibited
